# Experimental data: BindingDB's records for patent US20250091994 (Kobe University, 2025)
# Target: GTPase HRas [G12V] (Homo sapiens, UniProt P01112, G12V)
# Test: In Vitro Ras-Raf Binding Inhibitory Activity Assay
# Protocol: The in vitro Ras-Raf binding inhibitory activity of the compound of the present invention was evaluated by an ELISA method described below. GST-c-Raf-1 RBD diluted with a Ras-Raf binding buffer (50 mM Tris-HCl pH7.4, 150 mM NaCl, 5 mM MgCl2, 1 mM EDTA, and 1% Triton-X100) was added to each well of a glutathione-coated 96-well plate (Thermo Fisher Scientific.), and was incubated at 30° C. for 1 hour, to immobilize Raf on the well. The unbound free Raf was eliminated by washing the well with the Ras-Raf binding buffer three times. Subsequently, GTPTS-bound HRasG12V diluted with the Ras-Raf binding buffer and each compound solution (final DMSO concentration: 10%) were applied to each well, and the resulting mixture was then incubated at 30° C. for 1 hour, so that Ras and Raf were allowed to bind to each other. Thereafter, the plate was washed with the Ras-Raf binding buffer twice, and was then subjected to a blocking treatment at room temperature for 20 minutes, using TBS-Tween {10 mM Tris-HCl pH 7.4, 150 mM NaCl, and 0.05% (w/v) Tween-20}-5% (w/v) bovine serum albumin (BSA). After that, an anti-HRas antibody (C-20, Santa Cruz) or an anti-HRas antibody (259, Santa Cruz), which had been 1000 times diluted with TBS-Tween-5% BSA, was added to the reaction mixture, and incubated at room temperature for 1 hours. After the treatment with the primary antibody, the plate was washed with TBS-Tween-5% BSA three times, and a horseradish peroxidase-labeled secondary antibody against rabbit immunoglobulin G (GE Healthcare) of 1000 times diluted with TBS-Tween-5% BSA, was added to the plate, followed by incubation at room temperature for 1 hour. After the treatment with the secondary antibody, the plate was washed with TBS-Tween-5% BSA three times, and a substrate solution (TMB) was then added to the plate, followed by incubation at room temperature for 15 minutes for coloration. Finally, 2 M H2SO4 was added to stop color development (coloration reaction kit: Nacalai Tesque).
# GTPase HRas [G12V], sequence (P01112 whole entry G12V, looked up): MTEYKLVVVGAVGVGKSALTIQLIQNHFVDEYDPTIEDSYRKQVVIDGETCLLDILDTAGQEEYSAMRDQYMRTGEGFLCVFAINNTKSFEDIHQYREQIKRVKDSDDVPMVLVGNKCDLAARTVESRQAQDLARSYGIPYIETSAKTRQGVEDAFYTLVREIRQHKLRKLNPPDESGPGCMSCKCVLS
row,SMILES,IC50 [nM]
1,"COc1cc(C=C2C(=O)c3cccc(F)c3N2C(C)=O)ccc1OCC(=O)N1CCOCC1 [US20250091994, Example 105]",20000
2,"CC(=O)NCc1cccc2c1C(=O)/C(=C/c1ccc3cc(C(=O)N4CCOCC4)ccc3n1)N2C(C)=O [US20250091994, Example 106]",4100
3,"CC(=O)N1/C(=C/c2nc3ccc(/C=C/C(=O)N4CCOCC4)cc3s2)C(=O)c2ccccc21 [US20250091994, Example 108]",2600
4,"CC(=O)N1C(=Cc2nc3cc(/C=C/C(=O)N4CCOCC4)ccc3s2)C(=O)c2ccccc21 [US20250091994, Example 109]",460
5,"CC(=O)N1/C(=C/c2nc3cc(/C=C/C(=O)N4CCOCC4)ccc3s2)C(=O)c2ccccc21 [US20250091994, Example 110]",420
6,"CC(=O)N1/C(=C\c2cc(C(N)=O)c3cc(C(=O)N4CCOCC4)ccc3n2)C(=O)c2ccccc21 [US20250091994, Example 111]",1000
7,"CC(=O)N1/C(=C\c2cc(On3nnc4cccnc43)c3cc(C(=O)N4CCOCC4)ccc3n2)C(=O)c2ccccc21 [US20250091994, Example 112]",550
8,"CC(=O)Nc1cc(/C=C2/C(=O)c3ccccc3N2C(C)=O)nc2ccc(C(=O)N3CCOCC3)cc12 [US20250091994, Example 113]",680
9,"CC(=O)N1/C(=C\c2ccc3cc(C(=O)N4CCC(c5ccccc5)CC4)ccc3n2)C(=O)c2ccccc21 [US20250091994, Example 114]",29000
10,"COCCN1CCN(C(=O)c2ccc3nc(/C=C4/C(=O)c5ccccc5N4C(C)=O)ccc3c2)CC1 [US20250091994, Example 116]",8400
11,"CC(=O)N1/C(=C/c2cc(-c3ccnc4ccccc34)c3cc(C(=O)N4CCOCC4)ccc3n2)C(=O)c2ccccc21 [US20250091994, Example 117]",1100
12,"CC(=O)N1C(=Cc2cc(-c3cccc4ccccc34)c3cc(C(=O)N4CCOCC4)ccc3n2)C(=O)c2ccccc21 [US20250091994, Example 118]",730
13,"COC1(CN2CCN(C(=O)c3ccc4nc(/C=C5/C(=O)c6ccccc6N5C(C)=O)ccc4c3)CC2)COC1 [US20250091994, Example 119]",2900
14,"COC1(COC(=O)N2CCN(C(=O)c3ccc4nc(/C=C5/C(=O)c6ccccc6N5C(C)=O)ccc4c3)CC2)COC1 [US20250091994, Example 120]",2200
15,"CCOC(=O)N1C(=Cc2ccc(OCC(=O)N3CCOCC3)c(OC)c2)C(=O)c2ccccc21 [US20250091994, Example 123]",8500
16,"COc1cc(C=C2C(=O)c3ccccc3N2C(C)=O)ccc1OCCO [US20250091994, Example 125]",2800
17,"CC(=O)N1C(=Cc2ccc3cc(OCCO)ccc3n2)C(=O)c2ccccc21 [US20250091994, Example 126]",1400
18,"CC(=O)N1/C(=C\c2ccc3cc(C(=O)O)ccc3n2)C(=O)c2ccccc21 [US20250091994, Example 127]",2100
19,"CC(=O)N1/C(=C\c2ccc3cc(C(=O)N4CCC(C(=O)O)CC4)ccc3n2)C(=O)c2ccccc21 [US20250091994, Example 129]",1500
20,"CC(=O)N1C(=Cc2ccc3cc(CNC4CCOCC4)ccc3n2)C(=O)c2ccccc21 [US20250091994, Example 131]",1500
21,"CC(=O)N1/C(=C/c2nc3ccc(CNC4CCOCC4)cc3s2)C(=O)c2ccccc21 [US20250091994, Example 135]",790
22,"CC(=O)N1C(=Cc2ccc3cc(C(=O)N4CCNCC4)ccc3n2)C(=O)c2ccccc21 [US20250091994, Example 139]",6000
23,"CC(=O)N1/C(=C\c2cc(-c3ccccc3-c3ccccc3)c3cc(C(=O)N4CCN(C)CC4)ccc3n2)C(=O)c2ccccc21 [US20250091994, Example 140]",1300
24,"CC(=O)N1/C(=C\c2cc(-c3ccccc3-c3ccccc3)c3cc(C(=O)N4CCC(C(=O)O)CC4)ccc3n2)C(=O)c2ccccc21 [US20250091994, Example 142]",800
25,"CC(=O)N1CCc2cc(-c3cc(/C=C4/C(=O)c5ccccc5N4C(C)=O)nc4ccc(C(=O)N5CCOCC5)cc34)ccc2C1 [US20250091994, Example 144]",800
26,"CC(=O)N1/C(=C/c2cc(-c3cccc4[nH]ncc34)c3cc(C(=O)N4CCOCC4)ccc3n2)C(=O)c2ccccc21 [US20250091994, Example 145]",600

row,SMILES,IC50 [nM]
1,"CC(=O)N1CCc2c(cccc2-c2cc(/C=C3/C(=O)c4ccccc4N3C(C)=O)nc3ccc(C(=O)N4CCOCC4)cc23)C1 [US20250091994, Example 146]",500
2,"CC(=O)N1/C(=C/c2cc(-c3cccc(-c4cn[nH]c4)c3)c3cc(C(=O)N4CCOCC4)ccc3n2)C(=O)c2ccccc21 [US20250091994, Example 148]",300
3,"CC(=O)N1/C(=C\c2cc(-c3cccc(-c4cnn(C)c4)c3)c3cc(C(=O)N4CCOCC4)ccc3n2)C(=O)c2ccccc21 [US20250091994, Example 149]",300
4,"CC(=O)N1C(=Cc2cc(-c3ccc(-c4ccccc4)cc3)c3cc(C(=O)N4CCN(C5COC5)CC4)ccc3n2)C(=O)c2ccccc21 [US20250091994, Example 162]",2400
5,"CC(=O)N1C(=Cc2cc(-c3ccc4c(c3)CCN(C)C4)c3cc(C(=O)N4CCOCC4)ccc3n2)C(=O)c2ccccc21 [US20250091994, Example 173]",400
6,"CC(=O)N1/C(=C\c2cc(-c3cnn(C)c3)c3ccccc3n2)C(=O)c2ccccc21 [US20250091994, Example 177]",800
7,"CCn1cc(-c2cc(/C=C3/C(=O)c4ccccc4N3C(C)=O)nc3ccc(C(=O)N4CCOCC4)cc23)cn1 [US20250091994, Example 178]",800
8,"CC(=O)N1CCCC(c2cc(/C=C3/C(=O)c4ccccc4N3C(C)=O)nc3ccc(C(=O)N4CCOCC4)cc23)C1 (configuration not stated) [US20250091994, Example 179]",1000
9,"CC(=O)N1C(=Cc2cc(CN3CCOCC3=O)c3ccccc3n2)C(=O)c2ccccc21 [US20250091994, Example 183]",1400
10,"CC(=O)N1/C(=C\c2cc(-c3ccncc3)c3cc(C(=O)N4CCOCC4)ccc3n2)C(=O)c2ccccc21 [US20250091994, Example 184]",900
11,"CC(=O)N1C(=Cc2cc(-c3cncnc3)c3cc(C(=O)N4CCOCC4)ccc3n2)C(=O)c2ccccc21 [US20250091994, Example 185]",1600
12,"CC(=O)N1CCc2cc(-c3cc(/C=C4/C(=O)c5ccccc5N4C(C)=O)nc4ccccc34)ccc2C1 [US20250091994, Example 187]",500
13,"CC(=O)N1/C(=C\c2cc(-c3ncccn3)c3cc(C(=O)N4CCOCC4)ccc3n2)C(=O)c2ccccc21 [US20250091994, Example 189]",1500
14,"CC(=O)N1C(=Cc2cc(-c3ccc4c(c3)CCNC4=O)c3ccccc3n2)C(=O)c2ccccc21 [US20250091994, Example 190]",900
15,"CC(=O)N1/C(=C\c2cc(-c3cn(C)cn3)c3cc(C(=O)N4CCOCC4)ccc3n2)C(=O)c2ccccc21 [US20250091994, Example 192]",800
16,"CC(=O)N1CCc2c(cccc2-c2cc(/C=C3/C(=O)c4ccccc4N3C(C)=O)nc3ccccc23)C1 [US20250091994, Example 193]",700
17,"CC(=O)N1/C(=C\c2cc(-c3ccccc3-c3cnn(C)c3)c3cc(C(=O)N4CCOCC4)ccc3n2)C(=O)c2ccccc21 [US20250091994, Example 196]",800
18,"CC(=O)N1/C(=C\c2ccc3c(-c4cnn(C)c4)c(C(=O)N4CCOCC4)ccc3n2)C(=O)c2ccccc21 [US20250091994, Example 199]",2100
19,"CC(=O)N1CCc2cc(-c3c(C(=O)N4CCOCC4)ccc4nc(/C=C5/C(=O)c6ccccc6N5C(C)=O)ccc34)ccc2C1 [US20250091994, Example 200]",1000
20,"CC(=O)N1CCc2ccc(-c3c(C(=O)N4CCOCC4)ccc4nc(/C=C5/C(=O)c6ccccc6N5C(C)=O)ccc34)cc2C1 [US20250091994, Example 201]",800
21,"CC(=O)N1/C(=C\c2nc(-c3cnn(C)c3)c3ccccc3n2)C(=O)c2ccccc21 [US20250091994, Example 203]",600
22,"CC(=O)N1C(=Cc2cc(C(=O)N3CCN(C4COC4)CC3)c3ccccc3n2)C(=O)c2ccccc21 [US20250091994, Example 204]",1800
23,"CC(=O)N1C(=Cc2cc(-c3ccccc3-c3cnn(C)c3)c3cc(CNC4CCOCC4)ccc3n2)C(=O)c2ccccc21 [US20250091994, Example 206]",2000
24,"CC(=O)N1CCc2c(cccc2-c2cc(/C=C3/C(=O)c4ccccc4N3C(C)=O)nc3ccc(CNC4CCOCC4)cc23)C1 [US20250091994, Example 207]",700
25,"CC(=O)N1CCc2cc(-c3cc(/C=C4/C(=O)c5ccccc5N4C(C)=O)nc4ccc(CNC5CCOCC5)cc34)ccc2C1 [US20250091994, Example 209]",400
26,"CC(=O)N1CCc2ccc(-c3cc(/C=C4/C(=O)c5ccccc5N4C(C)=O)nc4ccc(CNC5CCOCC5)cc34)cc2C1 [US20250091994, Example 211]",600
